Assay results published in ChEMBL document CHEMBL4507302, “Data for DCP probe TP-020” (2021).

Columns and labels:
[1] = molecular target: Ephrin type-A receptor 3 (Homo sapiens) (UniProt P29320); details: Compound concentration 1000.0 nM
[2] = molecular target: cAMP-dependent protein kinase catalytic subunit PRKX (Homo sapiens) (UniProt P51817); details: Compound concentration 1000.0 nM
[3] = molecular target: Calcium/calmodulin-dependent protein kinase kinase 1 (Homo sapiens) (UniProt Q8N5S9); details: Compound concentration 1000.0 nM
[4] = molecular target: Epithelial discoidin domain-containing receptor 1 (Homo sapiens) (UniProt Q08345); details: Compound concentration 1000.0 nM
[5] = molecular target: Mitogen-activated protein kinase 11 (Homo sapiens) (UniProt Q15759); details: Compound concentration 1000.0 nM
[6] = molecular target: LIM domain kinase 2 (Homo sapiens) (UniProt P53671); details: Compound concentration 1000.0 nM
Sequence of LIM domain kinase 2 (Homo sapiens) (P53671 whole entry, looked up, the tested form may be a part): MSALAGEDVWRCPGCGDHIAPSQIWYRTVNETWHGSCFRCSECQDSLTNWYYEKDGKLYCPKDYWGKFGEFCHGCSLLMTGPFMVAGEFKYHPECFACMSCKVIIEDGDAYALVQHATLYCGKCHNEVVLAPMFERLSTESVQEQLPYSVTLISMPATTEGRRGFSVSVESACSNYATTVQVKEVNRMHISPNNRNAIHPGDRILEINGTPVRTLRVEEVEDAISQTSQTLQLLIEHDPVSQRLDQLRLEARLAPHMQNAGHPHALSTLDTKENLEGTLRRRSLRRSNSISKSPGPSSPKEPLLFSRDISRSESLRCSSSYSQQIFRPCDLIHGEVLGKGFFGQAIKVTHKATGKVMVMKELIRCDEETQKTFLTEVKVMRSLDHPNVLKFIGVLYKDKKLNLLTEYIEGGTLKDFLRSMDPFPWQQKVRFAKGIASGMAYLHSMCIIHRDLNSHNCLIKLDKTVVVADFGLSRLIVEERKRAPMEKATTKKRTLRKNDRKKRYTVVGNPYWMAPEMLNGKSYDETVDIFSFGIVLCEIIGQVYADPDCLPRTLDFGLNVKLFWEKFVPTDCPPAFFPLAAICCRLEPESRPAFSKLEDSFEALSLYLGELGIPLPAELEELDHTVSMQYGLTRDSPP

[7] = molecular target: Serine/threonine-protein kinase 32B (Homo sapiens) (UniProt Q9NY57); details: Compound concentration 1000.0 nM
[8] = molecular target: Fibroblast growth factor receptor 4 (Homo sapiens) (UniProt P22455); details: Compound concentration 1000.0 nM
[9] = molecular target: Beta-adrenergic receptor kinase 1 (Homo sapiens) (UniProt P25098); details: Compound concentration 1000.0 nM
[10] = molecular target: Tyrosine-protein kinase JAK1 (Homo sapiens) (UniProt P23458); details: Compound concentration 1000.0 nM
[11] = test system: Epidermal growth factor receptor (Homo sapiens), P00533 [UNDEFINED MUTATION]; details: Compound concentration 1000.0 nM
[12] = molecular target: Microtubule-associated serine/threonine-protein kinase 1 (Homo sapiens) (UniProt Q9Y2H9); details: Compound concentration 1000.0 nM
[13] = molecular target: Mitotic checkpoint serine/threonine-protein kinase BUB1 (Homo sapiens) (UniProt O43683); details: Compound concentration 1000.0 nM
[14] = molecular target: Ephrin type-A receptor 8 (Homo sapiens) (UniProt P29322); details: Compound concentration 1000.0 nM
[15] = molecular target: Serine/threonine-protein kinase PAK 6 (Homo sapiens) (UniProt Q9NQU5); details: Compound concentration 1000.0 nM
[16] = molecular target: Serine/threonine-protein kinase STK11 (Homo sapiens) (UniProt Q15831); details: Compound concentration 1000.0 nM
[17] = molecular target: Serine/threonine-protein kinase 32A (Homo sapiens) (UniProt Q8WU08); details: Compound concentration 1000.0 nM
Sequence of Serine/threonine-protein kinase 32A (Homo sapiens) (Q8WU08 whole entry): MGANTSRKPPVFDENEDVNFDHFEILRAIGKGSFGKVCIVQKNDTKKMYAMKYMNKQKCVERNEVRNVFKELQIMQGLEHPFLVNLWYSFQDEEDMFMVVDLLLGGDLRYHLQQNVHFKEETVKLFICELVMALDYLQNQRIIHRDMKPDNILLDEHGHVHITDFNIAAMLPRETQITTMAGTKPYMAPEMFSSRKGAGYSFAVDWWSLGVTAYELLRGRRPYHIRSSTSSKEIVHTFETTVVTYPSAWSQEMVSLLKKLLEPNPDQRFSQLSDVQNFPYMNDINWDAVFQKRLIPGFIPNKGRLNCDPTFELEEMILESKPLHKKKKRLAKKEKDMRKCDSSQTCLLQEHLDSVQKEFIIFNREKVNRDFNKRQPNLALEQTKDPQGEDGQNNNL

[18] = molecular target: Protein-tyrosine kinase 2-beta (Homo sapiens) (UniProt Q14289); details: Compound concentration 1000.0 nM
Sequence of Protein-tyrosine kinase 2-beta (Homo sapiens) (Q14289 whole entry, looked up, canonical isoform): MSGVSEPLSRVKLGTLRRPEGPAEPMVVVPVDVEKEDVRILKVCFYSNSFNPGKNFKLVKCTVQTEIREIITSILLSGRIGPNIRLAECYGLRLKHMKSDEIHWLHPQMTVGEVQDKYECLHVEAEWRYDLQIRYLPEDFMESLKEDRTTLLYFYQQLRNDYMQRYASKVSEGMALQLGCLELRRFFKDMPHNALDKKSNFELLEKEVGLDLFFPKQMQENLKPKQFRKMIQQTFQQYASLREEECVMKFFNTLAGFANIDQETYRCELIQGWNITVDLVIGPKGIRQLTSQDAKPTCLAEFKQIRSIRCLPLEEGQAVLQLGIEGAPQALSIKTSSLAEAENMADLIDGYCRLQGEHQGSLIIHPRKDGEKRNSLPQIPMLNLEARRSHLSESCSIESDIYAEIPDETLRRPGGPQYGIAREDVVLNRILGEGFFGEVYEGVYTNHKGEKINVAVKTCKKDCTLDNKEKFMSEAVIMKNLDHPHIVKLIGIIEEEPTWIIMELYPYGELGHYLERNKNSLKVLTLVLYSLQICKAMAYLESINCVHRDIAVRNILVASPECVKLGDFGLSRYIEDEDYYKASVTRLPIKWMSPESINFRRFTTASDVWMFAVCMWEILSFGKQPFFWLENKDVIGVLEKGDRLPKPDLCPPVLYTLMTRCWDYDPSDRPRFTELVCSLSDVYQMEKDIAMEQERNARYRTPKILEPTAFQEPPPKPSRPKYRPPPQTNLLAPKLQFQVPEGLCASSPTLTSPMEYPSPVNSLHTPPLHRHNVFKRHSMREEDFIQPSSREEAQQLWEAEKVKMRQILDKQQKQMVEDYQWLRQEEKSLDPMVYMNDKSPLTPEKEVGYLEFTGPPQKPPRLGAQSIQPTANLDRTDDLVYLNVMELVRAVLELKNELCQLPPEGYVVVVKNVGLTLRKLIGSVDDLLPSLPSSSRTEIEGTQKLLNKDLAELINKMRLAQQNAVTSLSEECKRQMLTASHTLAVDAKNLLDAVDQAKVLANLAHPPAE

[19] = molecular target: Phosphatidylinositol 4,5-bisphosphate 3-kinase catalytic subunit beta isoform (Homo sapiens) (UniProt P42338); details: Compound concentration 1000.0 nM
[20] = test system: Mast/stem cell growth factor receptor Kit (Homo sapiens), P10721 [D816H]; details: Compound concentration 1000.0 nM
[21] = molecular target: Eukaryotic translation initiation factor 2-alpha kinase 1 (Homo sapiens) (UniProt Q9BQI3); details: Compound concentration 1000.0 nM
[22] = molecular target: Cyclin-dependent kinase 8 (Homo sapiens) (UniProt P49336); details: Compound concentration 1000.0 nM
[23] = molecular target: Serine/threonine-protein kinase pim-1 (Homo sapiens) (UniProt P11309); details: Compound concentration 1000.0 nM
[24] = test system: Epidermal growth factor receptor (Homo sapiens), P00533 [L858R]; details: Compound concentration 1000.0 nM
[25] = molecular target: 5-hydroxytryptamine receptor 1B (Homo sapiens) (UniProt P28222); details: Compound concentration 10.0 uM
[26] = molecular target: Mitogen-activated protein kinase kinase kinase kinase 1 (Homo sapiens) (UniProt Q92918); details: Compound concentration 1000.0 nM
[27] = test system: Epidermal growth factor receptor (Homo sapiens), P00533 [T790M]; details: Compound concentration 1000.0 nM
[28] = test system: Tyrosine-protein kinase ABL1 (Homo sapiens), P00519 [Q252H]; details: Compound concentration 1000.0 nM
[29] = molecular target: Activin receptor type-1 (Homo sapiens) (UniProt Q04771); details: Compound concentration 1000.0 nM
Sequence of Activin receptor type-1 (Homo sapiens) (Q04771 whole entry): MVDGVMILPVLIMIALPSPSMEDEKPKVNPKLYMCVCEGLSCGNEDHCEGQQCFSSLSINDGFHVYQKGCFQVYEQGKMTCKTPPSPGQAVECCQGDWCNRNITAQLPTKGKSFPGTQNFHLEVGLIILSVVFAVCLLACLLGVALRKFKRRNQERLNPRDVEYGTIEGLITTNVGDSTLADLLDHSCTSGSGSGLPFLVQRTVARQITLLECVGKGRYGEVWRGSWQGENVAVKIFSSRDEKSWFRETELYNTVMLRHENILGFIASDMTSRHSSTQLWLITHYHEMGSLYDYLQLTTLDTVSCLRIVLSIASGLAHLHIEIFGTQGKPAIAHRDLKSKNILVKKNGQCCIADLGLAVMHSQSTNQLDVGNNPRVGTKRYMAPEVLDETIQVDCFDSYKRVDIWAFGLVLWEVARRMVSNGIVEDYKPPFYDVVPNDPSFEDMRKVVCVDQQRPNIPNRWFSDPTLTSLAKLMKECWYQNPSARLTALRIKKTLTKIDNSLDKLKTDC

[30] = molecular target: Histamine H4 receptor (Homo sapiens) (UniProt Q9H3N8); details: Compound concentration 10.0 uM
[31] = molecular target: Mitogen-activated protein kinase kinase kinase 20 (Homo sapiens) (UniProt Q9NYL2); details: Compound concentration 1000.0 nM
[32] = test system: Tyrosine-protein kinase ABL1 (Homo sapiens), P00519 [E255K]; details: Compound concentration 1000.0 nM
[33] = molecular target: Focal adhesion kinase 1 (Homo sapiens) (UniProt Q05397); details: Compound concentration 1000.0 nM
[34] = molecular target: Tyrosine-protein kinase Lck (Homo sapiens) (UniProt P06239); details: Compound concentration 1000.0 nM
[35] = molecular target: Cyclin-dependent kinase 16 (Homo sapiens) (UniProt Q00536); details: Compound concentration 1000.0 nM
[36] = molecular target: Activin receptor type-1-like (Homo sapiens) (UniProt P37023); details: Compound concentration 1000.0 nM
[37] = molecular target: Homeodomain-interacting protein kinase 4 (Homo sapiens) (UniProt Q8NE63); details: Compound concentration 1000.0 nM
[38] = molecular target: Interferon-induced, double-stranded RNA-activated protein kinase (Homo sapiens) (UniProt P19525); details: Compound concentration 1000.0 nM
[39] = test system: Tyrosine-protein kinase ABL1 (Homo sapiens), P00519 [Q252H]; details: Compound concentration 1000.0 nM; remark: listed apart in the source
[40] = test system: Serine/threonine-protein kinase B-raf (Homo sapiens), P15056 [V600E]; details: Compound concentration 1000.0 nM
Sequence of Serine/threonine-protein kinase B-raf (Homo sapiens), P15056 [V600E] (P15056 whole entry V600E): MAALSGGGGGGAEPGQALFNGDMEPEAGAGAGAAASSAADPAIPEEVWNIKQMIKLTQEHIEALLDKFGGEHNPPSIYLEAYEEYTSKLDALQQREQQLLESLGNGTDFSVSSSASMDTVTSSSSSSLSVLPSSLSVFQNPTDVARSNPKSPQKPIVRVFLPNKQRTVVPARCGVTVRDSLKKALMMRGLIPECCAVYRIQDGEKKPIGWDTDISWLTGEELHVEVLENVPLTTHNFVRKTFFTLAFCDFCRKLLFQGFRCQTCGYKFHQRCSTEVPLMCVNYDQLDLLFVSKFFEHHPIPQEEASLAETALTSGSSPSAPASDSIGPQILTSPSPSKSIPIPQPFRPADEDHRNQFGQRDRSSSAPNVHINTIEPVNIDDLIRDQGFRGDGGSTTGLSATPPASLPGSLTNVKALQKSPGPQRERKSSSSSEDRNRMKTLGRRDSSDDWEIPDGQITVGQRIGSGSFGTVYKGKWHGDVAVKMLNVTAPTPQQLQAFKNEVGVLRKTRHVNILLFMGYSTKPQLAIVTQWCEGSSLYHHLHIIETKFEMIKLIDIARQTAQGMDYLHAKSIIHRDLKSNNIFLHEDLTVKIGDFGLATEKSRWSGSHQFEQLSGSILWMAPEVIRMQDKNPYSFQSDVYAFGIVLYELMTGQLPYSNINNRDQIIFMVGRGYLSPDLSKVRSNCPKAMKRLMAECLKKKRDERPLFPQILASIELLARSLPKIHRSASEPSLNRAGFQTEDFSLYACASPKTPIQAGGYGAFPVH

[41] = molecular target: Mitogen-activated protein kinase kinase kinase 4 (Homo sapiens) (UniProt Q9Y6R4); details: Compound concentration 1000.0 nM
Sequence of Mitogen-activated protein kinase kinase kinase 4 (Homo sapiens) (Q9Y6R4 whole entry): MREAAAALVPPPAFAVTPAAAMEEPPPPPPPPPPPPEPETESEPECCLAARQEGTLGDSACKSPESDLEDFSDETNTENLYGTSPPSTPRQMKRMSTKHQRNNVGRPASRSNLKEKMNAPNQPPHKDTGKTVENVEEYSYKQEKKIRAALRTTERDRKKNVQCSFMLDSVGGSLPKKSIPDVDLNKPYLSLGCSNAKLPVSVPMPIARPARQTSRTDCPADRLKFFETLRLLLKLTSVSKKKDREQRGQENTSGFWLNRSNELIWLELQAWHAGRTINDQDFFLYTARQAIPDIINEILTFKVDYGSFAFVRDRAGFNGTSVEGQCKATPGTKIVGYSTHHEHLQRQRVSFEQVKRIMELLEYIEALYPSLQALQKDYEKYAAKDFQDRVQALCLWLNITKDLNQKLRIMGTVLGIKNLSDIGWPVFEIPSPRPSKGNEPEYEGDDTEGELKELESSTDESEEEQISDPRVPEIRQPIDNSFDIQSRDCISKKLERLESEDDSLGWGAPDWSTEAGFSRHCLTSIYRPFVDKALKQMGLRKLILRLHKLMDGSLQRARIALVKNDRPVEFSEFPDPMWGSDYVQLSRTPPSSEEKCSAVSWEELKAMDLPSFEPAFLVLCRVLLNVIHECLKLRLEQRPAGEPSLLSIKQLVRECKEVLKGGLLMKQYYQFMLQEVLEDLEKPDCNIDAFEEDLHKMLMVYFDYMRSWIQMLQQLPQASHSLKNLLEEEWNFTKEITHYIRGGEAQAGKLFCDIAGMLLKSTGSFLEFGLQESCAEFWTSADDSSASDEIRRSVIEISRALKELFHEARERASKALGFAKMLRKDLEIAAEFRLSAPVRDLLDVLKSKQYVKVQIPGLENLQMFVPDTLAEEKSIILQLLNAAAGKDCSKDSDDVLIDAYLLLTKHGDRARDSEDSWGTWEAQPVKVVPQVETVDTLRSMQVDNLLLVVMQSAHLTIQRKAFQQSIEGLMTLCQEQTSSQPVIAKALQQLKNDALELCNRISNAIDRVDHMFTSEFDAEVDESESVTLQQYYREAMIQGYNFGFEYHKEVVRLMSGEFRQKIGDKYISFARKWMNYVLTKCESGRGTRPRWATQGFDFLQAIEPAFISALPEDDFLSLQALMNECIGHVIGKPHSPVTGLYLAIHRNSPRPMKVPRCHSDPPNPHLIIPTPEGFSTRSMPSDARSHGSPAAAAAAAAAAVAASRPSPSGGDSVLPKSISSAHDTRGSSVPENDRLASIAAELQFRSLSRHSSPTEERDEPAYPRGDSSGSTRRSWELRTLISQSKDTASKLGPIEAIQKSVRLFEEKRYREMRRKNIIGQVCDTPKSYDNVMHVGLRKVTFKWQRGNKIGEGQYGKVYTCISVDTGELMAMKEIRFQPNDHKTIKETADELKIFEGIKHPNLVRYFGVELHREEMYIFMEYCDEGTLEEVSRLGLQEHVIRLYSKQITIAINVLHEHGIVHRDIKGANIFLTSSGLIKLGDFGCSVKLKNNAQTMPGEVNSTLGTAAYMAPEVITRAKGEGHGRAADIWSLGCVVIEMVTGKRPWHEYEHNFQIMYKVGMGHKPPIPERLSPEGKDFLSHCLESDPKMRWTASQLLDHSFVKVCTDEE

[42] = molecular target: Tyrosine-protein kinase Fyn (Homo sapiens) (UniProt P06241); details: Compound concentration 1000.0 nM
[43] = test system: Fibroblast growth factor receptor 3 (Homo sapiens), P22607 [G697C]; details: Compound concentration 1000.0 nM
[44] = molecular target: Leukocyte tyrosine kinase receptor (Homo sapiens) (UniProt P29376); details: Compound concentration 1000.0 nM
[45] = test system: Mast/stem cell growth factor receptor Kit (Homo sapiens), P10721 [D816V]; details: Compound concentration 1000.0 nM

Which results are given for `Nc1cnc(N2CCc3cc(S(=O)(=O)Nc4c(F)cc(Cl)cc4F)cc(N4CCCC4=O)c32)nc1`?
residual activity [1]: 78%; residual activity [2]: 99%; residual activity [3]: 100%; residual activity [4]: 100%; residual activity [5]: 100%; residual activity [6]: 100%; residual activity [7]: 74%; residual activity [8]: 100%; residual activity [9]: 100%; residual activity [10]: 100%; residual activity [11]: 71%; residual activity [12]: 97%; residual activity [13]: 100%; residual activity [14]: 100%; residual activity [15]: 100%; residual activity [16]: 100%; residual activity [17]: 80%; residual activity [18]: 100%; residual activity [19]: 87%; residual activity [20]: 100%; residual activity [21]: 94%; residual activity [22]: 100%; residual activity [23]: 88%; residual activity [24]: 85%; inhibition [25]: -3.82%; residual activity [26]: 83%; residual activity [27]: 88%; residual activity [28]: 100%; residual activity [29]: 100%; inhibition [30]: -0.37%; residual activity [31]: 95%; residual activity [32]: 85%; residual activity [33]: 99%; residual activity [34]: 100%; residual activity [35]: 98%; residual activity [36]: 86%; residual activity [37]: 100%; residual activity [38]: 41%; residual activity [39]: 98%; residual activity [40]: 100%; residual activity [41]: 85%; residual activity [42]: 58%; residual activity [43]: 89%; residual activity [44]: 100%; residual activity [45]: 100%

Which residual activity [1] does the source give for `Cn1nc(C(F)(F)F)cc1-c1cnc(N2CCc3cc(S(=O)(=O)Nc4c(F)cc(Cl)cc4F)cc(N4CCCC4=O)c32)nc1` [TP-020] here?
Its residual activity is 94%.

What about the residual activity [2] of the same compound?
Its residual activity is 97%.

What about the residual activity [3] of the same compound?
Its residual activity is 98%.

What about the residual activity [4] of the same compound?
The residual activity was 100%.

What about the residual activity [5] of the same compound?
Its residual activity is 100%.

What about the residual activity [6] of the same compound?
The residual activity was 100%.

And the residual activity [7]?
The residual activity was 95%.

And the residual activity [8]?
Its residual activity is 69%.

What about the residual activity [9] of the same compound?
Its residual activity is 85%.

And the residual activity [10]?
The residual activity was 100%.

And the residual activity [11]?
Its residual activity is 100%.

What about the residual activity [12] of the same compound?
Its residual activity is 100%.

And the residual activity [13]?
The residual activity was 87%.

And the residual activity [14]?
The residual activity was 65%.

And the residual activity [15]?
The residual activity was 100%.

And the residual activity [16]?
Its residual activity is 100%.

And the residual activity [17]?
The residual activity was 78%.

And the residual activity [18]?
Its residual activity is 100%.

What about the residual activity [19] of the same compound?
The residual activity was 85%.

What about the residual activity [20] of the same compound?
The residual activity was 77%.

What about the residual activity [21] of the same compound?
The residual activity was 100%.

What about the residual activity [22] of the same compound?
The residual activity was 96%.

And the residual activity [23]?
Its residual activity is 97%.

And the residual activity [24]?
Its residual activity is 100%.

What about the inhibition [25] of the same compound?
Its inhibition is 9.13%.

What about the residual activity [26] of the same compound?
The residual activity was 100%.

What about the residual activity [27] of the same compound?
The residual activity was 94%.

And the residual activity [28]?
Its residual activity is 85%.

What about the residual activity [29] of the same compound?
The residual activity was 85%.

And the inhibition [30]?
Its inhibition is 10.9%.

And the residual activity [31]?
Its residual activity is 98%.

And the residual activity [32]?
Its residual activity is 89%.

What about the residual activity [33] of the same compound?
Its residual activity is 98%.

What about the residual activity [34] of the same compound?
The residual activity was 100%.

What about the residual activity [35] of the same compound?
The residual activity was 77%.

And the residual activity [36]?
The residual activity was 87%.

What about the residual activity [37] of the same compound?
The residual activity was 100%.

And the residual activity [38]?
Its residual activity is 100%.

And the residual activity [39]?
The residual activity was 99%.

What about the residual activity [40] of the same compound?
Its residual activity is 100%.

What about the residual activity [41] of the same compound?
The residual activity was 100%.

What about the residual activity [42] of the same compound?
Its residual activity is 94%.

What about the residual activity [43] of the same compound?
The residual activity was 100%.

And the residual activity [44]?
Its residual activity is 94%.

What about the residual activity [45] of the same compound?
Its residual activity is 100%.
